Assay results taken from ChEMBL document CHEMBL3627602, “Synthesis of a novel series of 2,3,4-trisubstituted oxazolidines designed by isosteric replacement or rigidification of the structure and cytotoxic evaluation” (Medchemcomm, 2014).
pIC50: −log10 of the molar value. Calls of active or inactive are those of the source. No cut-off for these calls is given here.

Assays:
MDA-MB-231 [1] = assay: Antiproliferative activity against human MDA-MB-231 cells incubated for 48 hrs by MTT assay; type: functional, cell-based; settings: MDA-MB-231, 48 h
LNCaP [2] = assay: Antiproliferative activity against human LNCAP cells incubated for 48 hrs by MTT assay; type: functional, cell-based
Jurkat = assay: Antiproliferative activity against human Jurkat cells incubated for 48 hrs by MTT assay; type: functional, cell-based
HL-60 [3] = assay: Antiproliferative activity against human HL60 cells incubated for 48 hrs by MTT assay; type: functional, cell-based; settings: HL-60, 48 h
HL-60 [4] = assay: Induction of DNA fragmentation in human HL60 cells at 50 uM after 24 hrs using propidium iodide staining by flow cytometric analysis; type: functional, cell-based
Vero = assay: Cytotoxicity against African green monkey Vero cells incubated for 48 hrs by MTT assay; type: cell-based; settings: Chlorocebus sabaeus
PBMC = assay: Antiproliferative activity against human PBMC incubated for 48 hrs by MTT assay; type: cell-based
MDA-MB-231 [5] = assay: Induction of DNA fragmentation in human MDA-MB-231 cells at 50 uM after 24 hrs using propidium iodide staining by flow cytometric analysis; type: functional, cell-based
LNCaP [6] = assay: Selectivity index, ratio of IC50 for African green monkey Vero cells to IC50 for human LNCAP cells; type: functional
LNCaP [7] = assay: Selectivity index, ratio of IC50 for human PBMC to IC50 for human LNCAP cells

Row | pIC50 (MDA-MB-231 [1]) | pIC50 (LNCaP [2]) | pIC50 (Jurkat) | pIC50 (HL-60 [3]) | Structure (SMILES) | Activity (HL-60 [4]) | pIC50 (Vero) | pIC50 (PBMC) | Activity (MDA-MB-231 [5]) | Ratio IC50 (LNCaP [6]) | Ratio IC50 (LNCaP [7])
1 | < 4.10 | 4.43 | < 4.30 | 4.70 | COC(=O)c1ccc(CC[C@H]2COC(C)(C)N2C(=O)OC(C)(C)C)cc1 | – | – | – | – | – | –
2 | 4.49 | 4.57 | 4.38 | 4.74 | CC(C)(C)OC(=O)N1[C@@H](/C=C\c2ccc([N+](=O)[O-])cc2)COC1(C)C | Active | < 4.00 | < 4.00 | inactive | – | –
3 | < 4.10 | < 4.10 | < 4.30 | < 4.30 | CC(C)(C)OC(=O)N1[C@@H](C(=O)Nc2ccc([N+](=O)[O-])cc2)COC1(C)C | – | – | – | – | – | –
4 | 4.49 | 4.96 | 4.34 | 4.64 | CC(C)(C)OC(=O)N1[C@@H](/C=C/c2ccc([N+](=O)[O-])cc2)COC1(C)C | Active | < 4.00 | < 4.00 | inactive | >9 | >9
5 | < 4.10 | < 4.10 | < 4.30 | < 4.30 | CC(C)(C)OC(=O)N1[C@@H](CSc2ccc([N+](=O)[O-])cc2)COC1(C)C | – | – | – | – | – | –
